Among the data in ChEMBL document CHEMBL1124030, “Synthesis and biological activity of the four stereoisomers of 6-[4-[3-[[2-hydroxy-3-[4-[2- (cyclopropylmethoxy)ethyl]phenoxy]propyl]amino]-propionamido] phenyl]-5-methyl-4,5-dihydro-3(2H)-pyridazinone, a combined vasodilator and beta-adrenoceptor antagonist” (1988) are ED50 and ED40 values, retold here.

Type in all cases: functional
Test [1] relates to Felis catus. Put plainly: Dose required to induce 50% inhibition of isoprenaline-induced tachycardia in the ganglion blocked anesthetized cat. As to conditions: read-out: ID50 (the source's name).
Test [2] has as its system Rattus norvegicus. Nature of the test: Dose required to produce a 50% increase in blood flow to the autoperfused hindquarters of the anesthetized normotensive rat.
Test [3] relates to Rattus norvegicus. Put plainly: Dose required to produce a fall in blood pressure of 40 mmHg in the anesthetized normotensive rat.

Regarding `C[C@@H]1CC(=O)NN=C1c1ccc(NC(=O)CCNC[C@H](O)COc2ccc(CCOCC3CC3)cc2)cc1`, the ED50 in test [1] worked out at 1.7 µmol/kg; in test [2], 1 µmol/kg. Further, in test [3], the ED40 stood at 2.4 µM/kg.
The corresponding values for `C[C@@H]1CC(=O)NN=C1c1ccc(NC(=O)CCNC[C@@H](O)COc2ccc(CCOCC3CC3)cc2)cc1` are 20.2 µmol/kg, 0.9 µmol/kg and 4.9 µM/kg.
In the case of `C[C@H]1CC(=O)NN=C1c1ccc(NC(=O)CCNC[C@H](O)COc2ccc(CCOCC3CC3)cc2)cc1`, the figures for the ED50 in test [1] and in test [2] were 1.6 µmol/kg and > 40 µmol/kg, respectively. In addition, the ED40 in test [3] is >40 µM/kg.
The matching figures for `C[C@H]1CC(=O)NN=C1c1ccc(NC(=O)CCNC[C@@H](O)COc2ccc(CCOCC3CC3)cc2)cc1`: 8.6 µmol/kg, > 40 µmol/kg and 20 µM/kg.
The corresponding values for `CC1CC(=O)NN=C1c1ccc(NC(=O)CCNCC(O)COc2ccc(CCOCC3CC3)cc2)cc1` (stereo not given) are 1.7 µmol/kg, 1.6 µmol/kg and 2.4 µM/kg.
